Test results reported in patent publication US6737383B1, “Herbicidal oxadiazolidines” (priority 1999, dated 2004).

Key:
duck salad = assay: Test B flood test duck salad; type: in vivo, Heteranthera limosa
Method in brief: (§1)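 Plants were grown to the 2-leaf stage before treatment with test chemical, then held in a greenhouse for twelve to sixteen days. Injury was visually rated against untreated controls on a 0–10 scale, where 0 is no effect and 10 is complete control.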

crabgrass = assay: Test B pre/postemergence crabgrass; type: in vivo, Digitaria sanguinalis
Method in brief: (§2)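 Response is a visual 0-to-10 score relative to untreated plants, where 0 means no effect and 10 means complete control, taken twelve to sixteen days after application. Treatments went onto soil at planting and onto foliage of 1- to 4-leaf plants, using a surfactant-containing non-phytotoxic solvent.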

purple nutsedge = assay: Test B pre/postemergence purple nutsedge; type: in vivo, Cyperus rotundus
Method in brief: as §2

rice = assay: Test B flood test rice; type: in vivo, Oryza sativa
Method in brief: as §1

corn = assay: Test B pre/postemergence corn; type: in vivo, Zea mays
Method in brief: as §2

pigweed = assay: Test B pre/postemergence pigweed; type: in vivo, Amaranthus retroflexus; settings: for Plant response rating, Redroot pigweed: scale of 0 to 10 where 0 is no effect and 10 is complete control
Method in brief: as §2

cocklebur = assay: Test B pre/postemergence cocklebur; type: in vivo, Xanthium strumarium
Method in brief: as §2

wild oat = assay: Test B pre/postemergence wild oat; type: in vivo, Avena fatua; settings: for Plant response rating, Wild oats: scale of 0 to 10 where 0 is no effect and 10 is complete control
Method in brief: as §2

morningglory = assay: Test B pre/postemergence morningglory; type: in vivo, Ipomoea hederacea; settings: for Plant response rating, Morningglory: scale of 0 to 10 where 0 is no effect and 10 is complete control
Method in brief: as §2

giant foxtail = assay: Test B pre/postemergence giant foxtail; type: in vivo, Setaria faberii
Method in brief: as §2

surinam grass = assay: Test B pre/postemergence surinam grass; type: in vivo, Brachiaria decumbens
Method in brief: as §2

wheat = assay: Test B pre/postemergence wheat; type: in vivo, Triticum aestivum; settings: for Plant response rating, Wheat: scale of 0 to 10 where 0 is no effect and 10 is complete control
Method in brief: as §2

bamyardgrass = assay: Test B flood test barnyardgrass; type: in vivo, Echinochloa crus-galli
Method in brief: as §1

rape = assay: Test B pre/postemergence rape; type: in vivo, Brassica napus; settings: for Plant response rating, Rape: scale of 0 to 10 where 0 is no effect and 10 is complete control
Method in brief: as §2

sugar beet = assay: Test B pre/postemergence sugar beet; type: in vivo, Beta vulgaris; settings: for Plant response rating, Sugarbeets: scale of 0 to 10 where 0 is no effect and 10 is complete control
Method in brief: as §2

smallflower flatsedge = assay: Test B flood test smallflower flatsedge; type: in vivo, Cyperus difformis
Method in brief: as §1

[1] = Rate 62 g/ha, flood test species, Pre-emergence, visual evaluation after twelve to sixteen days
[2] = Rate 125 g/ha, under heading Pre-emergence, flood test species, visual evaluation after twelve to sixteen days
[3] = Rate 250 g/ha, Pre-emergence (flood test species), scale 0 to 10, 0 is no effect, 10 is complete control
[4] = Rate 500 g/ha, Pre-emergence, flood test species, scale 0 to 10 (0 no effect, 10 complete control)
[5] = Postemergence, Rate 250 g/ha, scale 0 to 10
[6] = Postemergence, Rate 500 g/ha, scale of 0 to 10 where 0 is no effect and 10 is complete control
[7] = Preemergence, Rate 62 g/ha, scale of 0 to 10 where 0 is no effect and 10 is complete control
[8] = Preemergence, Rate 125 g/ha, scale of 0 to 10 where 0 is no effect and 10 is complete control
[9] = Preemergence, Rate 250 g/ha, scale 0 to 10, 0 is no effect, 10 is complete control
[10] = Preemergence, Rate 500 g/ha, scale 0 to 10, 0 is no effect, 10 is complete control
[11] = Rate 62 g/ha, Postemergence, scale 0 to 10 (0 no effect, 10 complete control)
[12] = Rate 125 g/ha, Postemergence, scale 0 to 10, 0 is no effect, 10 is complete control

CC(C)N(C(=O)n1oc(=O)n(CC(=O)N(C)C)c1=O)c1ccc(Cl)cc1 [Compound 477]
Plant response rating, Ducksalad (0 to 10 scale, 0 is no effect, 10 is complete control) (duck salad; [1]): 0 | Ducksalad plant response rating (0 to 10 scale, 0 is no effect, 10 is complete control) (duck salad; [2]): 0 | Ducksalad plant response rating (duck salad; [3]): 0 | Ducksalad plant response rating (duck salad; [4]): 0 | Crabgrass plant response rating (crabgrass; [5]): 5 | Crabgrass plant response rating (crabgrass; [6]): 7 | Plant response rating, Crabgrass (crabgrass; [7]): 8 | Plant response rating, Crabgrass (crabgrass; [8]): 8 | Crabgrass plant response rating (crabgrass; [9]): 10 | Crabgrass plant response rating (crabgrass; [10]): 10 | Crabgrass plant response rating (crabgrass; [11]): 1 | Crabgrass plant response rating (crabgrass; [12]): 2 | Nutsedge plant response rating (purple nutsedge; [5]): 0 | Plant response rating, Nutsedge (purple nutsedge; [8]): 0 | Nutsedge plant response rating (purple nutsedge; [9]): 0 | Nutsedge plant response rating (purple nutsedge; [10]): 0 | Nutsedge plant response rating (purple nutsedge; [11]): 0 | Nutsedge plant response rating (purple nutsedge; [12]): 0 | Plant response rating, Rice (0 to 10 scale, 0 is no effect, 10 is complete control) (rice; [1]): 0 | Rice plant response rating (0 to 10 scale, 0 is no effect, 10 is complete control) (rice; [2]): 0 | Rice plant response rating (rice; [3]): 0 | Rice plant response rating (rice; [4]): 0 | Corn plant response rating (corn; [5]): 0 | Corn plant response rating (corn; [6]): 0 | Plant response rating, Corn (corn; [7]): 0 | Plant response rating, Corn (corn; [8]): 0 | Corn plant response rating (corn; [9]): 0 | Corn plant response rating (corn; [10]): 0 | Corn plant response rating (corn; [11]): 0 | Corn plant response rating (corn; [12]): 0 | Redroot pigweed plant response rating (pigweed; [5]): 2 | Plant response rating, Redroot pigweed (pigweed; Preemergence, Rate 62 g/ha): 0 | Plant response rating, Redroot pigweed (pigweed; Preemergence, Rate 125 g/ha): 1 | Redroot pigweed plant response rating (pigweed; [9]): 6 | Redroot pigweed plant response rating (pigweed; [10]): 8 | Redroot pigweed plant response rating (pigweed; [11]): 0 | Redroot pigweed plant response rating (pigweed; [12]): 0 | Cocklebur plant response rating (cocklebur; [5]): 0 | Cocklebur plant response rating (cocklebur; [6]): 0 | Plant response rating, Cocklebur (cocklebur; [7]): 0 | Plant response rating, Cocklebur (cocklebur; [8]): 0 | Cocklebur plant response rating (cocklebur; [9]): 0 | Cocklebur plant response rating (cocklebur; [10]): 0 | Cocklebur plant response rating (cocklebur; [11]): 0 | Cocklebur plant response rating (cocklebur; [12]): 0 | Wild oats plant response rating (wild oat; [5]): 0 | Plant response rating, Wild oats (wild oat; Preemergence, Rate 62 g/ha): 0 | Plant response rating, Wild oats (wild oat; Preemergence, Rate 125 g/ha): 5 | Wild oats plant response rating (wild oat; [9]): 5 | Wild oats plant response rating (wild oat; [10]): 7 | Wild oats plant response rating (wild oat; [11]): 0 | Wild oats plant response rating (wild oat; [12]): 0 | Morningglory plant response rating (morningglory; [5]): 10 | Plant response rating, Morningglory (morningglory; Preemergence, Rate 62 g/ha): 0 | Plant response rating, Morningglory (morningglory; Preemergence, Rate 125 g/ha): 0 | Morningglory plant response rating (morningglory; [9]): 0 | Morningglory plant response rating (morningglory; [10]): 0 | Morningglory plant response rating (morningglory; [11]): 6 | Morningglory plant response rating (morningglory; [12]): 7 | Giant foxtail plant response rating (giant foxtail; [5]): 6 | Giant foxtail plant response rating (giant foxtail; [6]): 7 | Plant response rating, Giant foxtail (giant foxtail; [7]): 6 | Plant response rating, Giant foxtail (giant foxtail; [8]): 6 | Giant foxtail plant response rating (giant foxtail; [9]): 9 | Giant foxtail plant response rating (giant foxtail; [10]): 10 | Giant foxtail plant response rating (giant foxtail; [11]): 2 | Giant foxtail plant response rating (giant foxtail; [12]): 2 | B. signalgrass plant response rating (surinam grass; Postemergence, Rate 250 g/ha, scale 0 to 10, 0 no effect, 10 complete control): 5 | B. signalgrass plant response rating (surinam grass; [6]): 5 | Plant response rating, B. signalgrass (surinam grass; [7]): 0 | Plant response rating, B. signalgrass (surinam grass; [8]): 2 | B. signalgrass plant response rating (surinam grass; [9]): 4 | B. signalgrass plant response rating (surinam grass; [10]): 6 | B. signalgrass plant response rating (surinam grass; [11]): 0 | B. signalgrass plant response rating (surinam grass; [12]): 0 | Wheat plant response rating (wheat; [5]): 0 | Plant response rating, Wheat (wheat; Preemergence, Rate 62 g/ha): 0 | Plant response rating, Wheat (wheat; Preemergence, Rate 125 g/ha): 0 | Wheat plant response rating (wheat; [9]): 0 | Wheat plant response rating (wheat; [10]): 0 | Wheat plant response rating (wheat; [11]): 0 | Wheat plant response rating (wheat; [12]): 0 | Plant response rating, Barnyardgrass (0 to 10 scale, 0 is no effect, 10 is complete control) (bamyardgrass; [1]): 0 | Barnyardgrass plant response rating (0 to 10 scale, 0 is no effect, 10 is complete control) (bamyardgrass; [2]): 0 | Barnyardgrass plant response rating (bamyardgrass; [3]): 0 | Barnyardgrass plant response rating (bamyardgrass; [4]): 0 | Rape plant response rating (rape; [5]): 1 | Plant response rating, Rape (rape; Preemergence, Rate 62 g/ha): 0 | Plant response rating, Rape (rape; Preemergence, Rate 125 g/ha): 0 | Rape plant response rating (rape; [9]): 0 | Rape plant response rating (rape; [10]): 2 | Rape plant response rating (rape; [11]): 0 | Rape plant response rating (rape; [12]): 0 | Sugarbeets plant response rating (sugar beet; [5]): 0 | Plant response rating, Sugarbeets (sugar beet; Preemergence, Rate 62 g/ha): 0 | Plant response rating, Sugarbeets (sugar beet; Preemergence, Rate 125 g/ha): 0 | Sugarbeets plant response rating (sugar beet; [9]): 0 | Sugarbeets plant response rating (sugar beet; [10]): 0 | Sugarbeets plant response rating (sugar beet; [11]): 0 | Sugarbeets plant response rating (sugar beet; [12]): 0 | Plant response rating, S. Flatsedge (0 to 10 scale, 0 is no effect, 10 is complete control) (smallflower flatsedge; [1]): 0 | S. Flatsedge plant response rating (0 to 10 scale, 0 is no effect, 10 is complete control) (smallflower flatsedge; [2]): 0 | S. Flatsedge plant response rating (smallflower flatsedge; [3]): 0 | S. Flatsedge plant response rating (smallflower flatsedge; [4]): 0
